We go through 21 compounds from patent US20250388605A1, “HETEROBIFUNCTIONAL COMPOUNDS AND METHODS OF TREATING DISEASE” (Halda Therapeutics OpCo, Inc., priority 2022, published 2025).

One assay concerns T-Rex 293 cell line SC cells having increased expression of progesterone receptor isoform B protein. Description: Cellular growth inhibition assay, T-Rex 293 SC cells exposed to doxycycline (increased progesterone receptor isoform B expression), CellTiter-Glo. The format is cell-based. The conditions noted are these: T-Rex 293 SC cells with 10 ng/mL doxycycline (increased PR isoform B), 72 hours.
In general, GI50 refers to the concentration that inhibits growth by half. Low readings indicate more potent growth inhibition, high ones less potent growth inhibition. Consider `CCS(=O)(=O)Nc1ccc(Oc2cccc(OCCOC3CCN(c4ccc(C(=O)N[C@H]5C(C)(C)[C@H](Oc6ccc(C#N)c(Cl)c6)C5(C)C)cn4)CC3)c2)c(-c2cn(C)c(=O)c3[nH]ccc23)c1` [Compound I-70, N-((1r, 3r)-3-(3-chloro-4-cyanophenoxy)-2,2,4,4-tetramethylcyclobutyl)-6-(4-(2-(3-(4-(ethylsulfonamido)-2-(6-methyl-7-oxo-6,7-dihydro-1H-pyrrolo[2,3-c]pyridin-4-yl)phenoxy)phenoxy)ethoxy)piperidin-1-yl)nicotinamide], for which the GI50 is less than 500 nM.
Same read-out and setting: the figure for `CCS(=O)(=O)Nc1ccc(Oc2cccc(OCCN(C)c3ncc(C(=O)N[C@H]4C(C)(C)[C@H](Oc5ccc(C#N)c(Cl)c5)C4(C)C)cn3)c2)c(-c2cn(C)c(=O)c3[nH]ccc23)c1` [Compound I-1, N-((1r, 3r)-3-(3-chloro-4-cyanophenoxy)-2,2,4,4-tetramethylcyclobutyl)-2-((2-(3-(4-(ethylsulfonamido)-2-(6-methyl-7-oxo-6,7-dihydro-1H-pyrrolo[2,3-c]pyridin-4-yl)phenoxy)phenoxy)ethyl)(methyl)amino)pyrimidine-5-carboxamide] is less than 500 nM; for `CN(C1CN(c2ccc(Oc3ccc(C(C)(C)O)cc3-c3cn(C)c(=O)c4[nH]ccc34)cc2)C1)C1CN(c2ncc(C(=O)N[C@H]3C(C)(C)[C@H](Oc4ccc(C#N)c(Cl)c4)C3(C)C)cn2)C1` [Compound I-238] it is less than 500 nM.

The target in another assay is T1, progesterone receptor ligand binding domain (GST-tagged PR LBD) (Homo sapiens, UniProt P06401).
T1 construct: purchased Life Technologies A15905 or a15906
T1 sequence (P06401 679-913 limits assumed): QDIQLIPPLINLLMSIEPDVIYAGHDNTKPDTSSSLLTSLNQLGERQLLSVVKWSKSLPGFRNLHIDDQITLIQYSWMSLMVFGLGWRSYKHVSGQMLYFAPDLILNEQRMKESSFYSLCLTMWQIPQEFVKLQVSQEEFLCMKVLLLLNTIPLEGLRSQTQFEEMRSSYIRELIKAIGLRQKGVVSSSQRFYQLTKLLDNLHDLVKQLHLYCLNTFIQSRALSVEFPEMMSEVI
Description: FP Assay for Binding Affinity to Progesterone Receptor (PolarScreen Progesterone Receptor Competitor Assay Kit). As to conditions: fluorescence polarization, Fluormone tracer, 2 hours at room temperature. In outline:
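Fluorescence polarization competition: GST-tagged human PR LBD, Fluormone tracer and compound incubated 2 h at room temperature in the dark. mP plotted against compound concentration; IC50 from four-parameter non-linear fit.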
By IC50 is commonly meant the point on the concentration scale where inhibition reaches its midpoint. High values mean a need for much substance, low ones inhibition by little substance. In turn, `CN(C1CN(c2ccc(Oc3ccc(C(C)(C)O)cc3-c3cn(C)c(=O)c4[nH]ccc34)cc2)C1)C1CN(c2ncc(C(=O)N[C@H]3C(C)(C)[C@H](Oc4ccc(C#N)c(Cl)c4)C3(C)C)cn2)C1` [Compound I-238] registered an IC50 of 50 to 500 nM.

For the next assay, the target named is T2, androgen receptor (Homo sapiens, UniProt P10275).
T2 construct: host or cells: unnamed cells, cytosolic fraction
T2 sequence (P10275 1-920): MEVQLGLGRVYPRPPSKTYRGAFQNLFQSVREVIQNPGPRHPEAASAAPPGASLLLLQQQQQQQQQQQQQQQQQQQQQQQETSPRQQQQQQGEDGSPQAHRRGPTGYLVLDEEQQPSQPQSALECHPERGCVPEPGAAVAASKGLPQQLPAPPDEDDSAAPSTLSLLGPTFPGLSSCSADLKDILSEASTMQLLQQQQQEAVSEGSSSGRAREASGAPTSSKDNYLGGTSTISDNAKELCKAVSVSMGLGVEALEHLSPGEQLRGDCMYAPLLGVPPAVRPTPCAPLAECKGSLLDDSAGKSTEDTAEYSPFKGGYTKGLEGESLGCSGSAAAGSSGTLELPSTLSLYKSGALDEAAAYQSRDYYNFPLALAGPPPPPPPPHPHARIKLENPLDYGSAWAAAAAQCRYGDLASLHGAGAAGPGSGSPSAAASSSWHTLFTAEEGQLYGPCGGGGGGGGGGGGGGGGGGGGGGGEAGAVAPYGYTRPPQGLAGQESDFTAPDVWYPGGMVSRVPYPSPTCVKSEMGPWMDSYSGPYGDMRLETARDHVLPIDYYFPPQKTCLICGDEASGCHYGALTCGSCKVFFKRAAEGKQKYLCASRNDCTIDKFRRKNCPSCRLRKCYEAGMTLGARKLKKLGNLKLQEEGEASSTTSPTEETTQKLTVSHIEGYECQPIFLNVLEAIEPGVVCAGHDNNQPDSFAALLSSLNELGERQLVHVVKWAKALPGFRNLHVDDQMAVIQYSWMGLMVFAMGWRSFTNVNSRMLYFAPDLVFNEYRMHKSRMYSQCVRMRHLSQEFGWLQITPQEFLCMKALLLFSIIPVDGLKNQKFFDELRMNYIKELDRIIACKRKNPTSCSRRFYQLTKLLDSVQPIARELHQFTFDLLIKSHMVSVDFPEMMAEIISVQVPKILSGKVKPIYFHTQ
Description: Assay for binding affinity to androgen receptor ([3H]methyltrienolone radioligand competition, cell cytosol). As to conditions: binding to the androgen receptor, 1 nM [3H]methyltrienolone, 24 hr at 4° C. As for the experimental part:
Fractions of cell cytosol ([…]) were incubated for 24 hr at 4° C. with 1 nM [^3H]methyltrienolone in the absence or presence of the test compound in a buffer containing 25 mM Hepes-Tris (pH 7.4), 1 mM EDTA, 10 mM Na2MoO4, 2 mM DTT, 5 μM triamcinolone acetonide, and 10% glycerol. Nonspecific binding was determined in the presence of […] testosterone. Following incubation, the samples were filtered rapidly under vacuum through glass fiber filters (GF/B, Packard) presoaked with 0.3% PEI and rinsed several times with ice-cold 50 mM Tris-HCl using a 96-sample cell harvester (Unifilter, Packard). The filters were dried then counted for radioactivity in a scintillation counter (Topcount, Packard) using a scintillation cocktail (Microscint 0, Packard). The results are expressed as a percent inhibition of the control radioligand specific binding. The standard reference compound is testosterone, which is tested in each experiment at several concentrations to obtain a competition curve from which its IC50 is calculated.
In general terms: Displacement assays read how much labelled ligand stays bound in the presence of the test substance.
The term Ki denotes a measure of affinity in units of concentration, obtained from inhibition or displacement. Read a low Ki as a stronger hold on the target. In turn, `CCS(=O)(=O)Nc1ccc(Oc2cccc(OCCOC3CCN(c4ccc(C(=O)N[C@H]5C(C)(C)[C@H](Oc6ccc(C#N)c(Cl)c6)C5(C)C)nn4)CC3)c2)c(-c2cn(C)c(=O)c3[nH]ccc23)c1` [Compound I-11] registered an inhibition constant (Ki) of less than 50 nM.
Still for that read-out and setting: the figure for `CCS(=O)(=O)Nc1ccc(Oc2cccc(NCCOC3CCN(c4ncc(C(=O)N[C@H]5C(C)(C)[C@H](Oc6ccc(C#N)c(Cl)c6)C5(C)C)cn4)CC3)c2)c(-c2cn(C)c(=O)c3[nH]ccc23)c1` [Compound I-84] is less than 50 nM; for `CCS(=O)(=O)N(C)c1ccc(Oc2cccc(N3CCN(C4CN(c5ncc(C(=O)N[C@H]6C(C)(C)[C@H](Oc7ccc(C#N)c(Cl)c7)C6(C)C)cn5)C4)CC3)c2)c(-c2cn(C)c(=O)c3[nH]ccc23)c1` [Compound I-118] it is less than 50 nM.
Same read-out and setting: the same measure for `CCS(=O)(=O)Nc1ccc(Oc2cccc(N(C)C3CN(CC4CCN(c5ncc(C(=O)NC6C(C)(C)C(Oc7ccc(C#N)c(Cl)c7)C6(C)C)cn5)CC4)C3)c2)c(-c2cn(C)c(=O)c3[nH]ccc23)c1` (stereo not drawn) [Compound I-39]: less than 50 nM; for `Cn1cc(-c2ccccc2Oc2cccc(OCCOC3CCN(c4ncc(C(=O)N[C@H]5C(C)(C)[C@H](Oc6ccc(C#N)c(Cl)c6)C5(C)C)cn4)CC3)c2)c2cc[nH]c2c1=O` [Compound I-61, N-((1r, 3r)-3-(3-chloro-4-cyanophenoxy)-2,2,4,4-tetramethylcyclobutyl)-2-(4-(2-(3-(2-(6-methyl-7-oxo-6,7-dihydro-1H-pyrrolo[2,3-c]pyridin-4-yl)phenoxy)phenoxy)ethoxy)piperidin-1-yl)pyrimidine-5-carboxamide]: less than 50 nM; for `CCS(=O)(=O)c1ccc(Oc2cccc(OCCOC3CCN(c4ccc(C(=O)N[C@H]5C(C)(C)[C@H](Oc6ccc(C#N)c(Cl)c6)C5(C)C)cn4)CC3)c2F)c(-c2cn(C)c(=O)c3[nH]ccc23)c1` [Compound I-185]: less than 50 nM.
The same measure, in the same setting: the figure for `CCS(=O)(=O)Nc1ccc(Oc2cccc(OCCOC3CCN(c4ccc(C(=O)N[C@H]5C(C)(C)[C@H](Oc6ccc(C#N)c(Cl)c6)C5(C)C)cn4)CC3)c2)c(-c2cn(C)c(=O)c3[nH]ccc23)c1` [Compound I-70, N-((1r, 3r)-3-(3-chloro-4-cyanophenoxy)-2,2,4,4-tetramethylcyclobutyl)-6-(4-(2-(3-(4-(ethylsulfonamido)-2-(6-methyl-7-oxo-6,7-dihydro-1H-pyrrolo[2,3-c]pyridin-4-yl)phenoxy)phenoxy)ethoxy)piperidin-1-yl)nicotinamide] is less than 50 nM; for `CCS(=O)(=O)Nc1ccc(Oc2cccc(N3CC(N(C)C4CN(c5ncc(C(=O)N[C@H]6C(C)(C)[C@H](Oc7ccc(C#N)c(Cl)c7)C6(C)C)cn5)C4)C3)c2)c(-c2cn(C)c(=O)c3[nH]ccc23)c1` [Compound I-120] it is less than 50 nM.
As for `Cn1cc(-c2cc(N)ccc2Oc2cccc(OCCN3CCN(c4ncc(C(=O)N[C@H]5C(C)(C)[C@H](Oc6ccc(C#N)c(Cl)c6)C5(C)C)cn4)CC3)c2F)c2cc[nH]c2c1=O` [Compound I-100], the inhibitory constant (Ki) was less than 50 nM.
Same read-out and setting: the same measure for `CCS(=O)(=O)Nc1ccc(Oc2cccc(OCCOCCOC3CCN(c4ncc(C(=O)N[C@H]5C(C)(C)[C@H](Oc6ccc(C#N)c(Cl)c6)C5(C)C)cn4)CC3)c2)c(-c2cn(C)c(=O)c3[nH]ccc23)c1` [Compound I-13]: less than 50 nM; for `CCS(=O)(=O)Nc1ccc(Oc2cccc(OCCN(C)c3ncc(C(=O)N[C@H]4C(C)(C)[C@H](Oc5ccc(C#N)c(Cl)c5)C4(C)C)cn3)c2)c(-c2cn(C)c(=O)c3[nH]ccc23)c1` [Compound I-1, N-((1r, 3r)-3-(3-chloro-4-cyanophenoxy)-2,2,4,4-tetramethylcyclobutyl)-2-((2-(3-(4-(ethylsulfonamido)-2-(6-methyl-7-oxo-6,7-dihydro-1H-pyrrolo[2,3-c]pyridin-4-yl)phenoxy)phenoxy)ethyl)(methyl)amino)pyrimidine-5-carboxamide]: less than 50 nM.
The same measure, in the same setting: the same measure for `CCS(=O)(=O)Nc1ccc(Oc2cccc(OCCOC3CCN(c4ncc(C(=O)N[C@H]5C(C)(C)[C@H](Oc6ccc(C#N)c(Cl)c6)C5(C)C)cn4)CC3)n2)c(-c2cn(C)c(=O)c3[nH]ccc23)c1` [Compound I-47, N-((1r, 3r)-3-(3-chloro-4-cyanophenoxy)-2,2,4,4-tetra-methylcyclobutyl)-2-(4-(2-((6-(4-(ethylsulfonamido)-2-(6-methyl-7-oxo-6,7-dihydro-1H-pyrrolo[2,3-c]pyridin-4-yl)phenoxy)pyridin-2-yl)oxy)ethoxy)piperidin-1-yl)pyrimidine-5-carboxamide]: less than 50 nM.
`CCS(=O)(=O)Nc1ccc(Oc2cccc(N3CC(CC4CN(c5ncc(C(=O)N[C@H]6C(C)(C)[C@H](Oc7ccc(C#N)c(Cl)c7)C6(C)C)cn5)C4)C3)c2)c(-c2cn(C)c(=O)c3[nH]ccc23)c1` [Compound I-158] returned a Ki of less than 50 nM.
In turn, `Cn1cc(-c2cc(N)ccc2Oc2cccc(OCCC3CCN(c4ncc(C(=O)N[C@H]5C(C)(C)[C@H](Oc6ccc(C#N)c(Cl)c6)C5(C)C)cn4)CC3)c2)c2cc[nH]c2c1=O` [Compound I-101] yielded a Ki of less than 50 nM.
Still for that read-out and setting: the figure for `CCS(=O)(=O)Nc1ccc(Oc2cccc(N3CCN(C4CN(c5ncc(C(=O)N[C@H]6C(C)(C)[C@H](Oc7ccc(C#N)c(Cl)c7)C6(C)C)cn5)C4)CC3)c2)c(-c2cn(C)c(=O)c3[nH]ccc23)c1` [Compound I-126] is less than 50 nM.
For `CCS(=O)(=O)Nc1ccc(Oc2cccc(OCCOCCOCCOCCOCCOC3CCN(c4ncc(C(=O)N[C@H]5C(C)(C)[C@H](Oc6ccc(C#N)c(Cl)c6)C5(C)C)cn4)CC3)c2)c(-c2cn(C)c(=O)c3[nH]ccc23)c1` [Compound I-8], the Ki is less than 50 nM.
The same measure, in the same setting: the same measure for `CCS(=O)(=O)Nc1ccc(Oc2cccc(CCN3CC4CN(c5ncc(C(=O)N[C@H]6C(C)(C)[C@H](Oc7ccc(C#N)c(Cl)c7)C6(C)C)cn5)CC4C3)c2)c(-c2cn(C)c(=O)c3[nH]ccc23)c1` (stereo partly drawn) [Compound I-119]: less than 50 nM; for `CCS(=O)(=O)Nc1ccc(Oc2cccc(CCOC3CCN(c4ncc(C(=O)N[C@H]5C(C)(C)[C@H](Oc6ccc(C#N)c(Cl)c6)C5(C)C)cn4)CC3)c2)c(-c2cn(C)c(=O)c3[nH]ccc23)c1` [Compound I-19]: less than 50 nM; for `Cn1cc(-c2cc(N)ccc2Oc2cccc(N3CC(N4CCN(c5ncc(C(=O)N[C@H]6C(C)(C)[C@H](Oc7ccc(C#N)c(Cl)c7)C6(C)C)cn5)CC4)C3)c2F)c2cc[nH]c2c1=O` [Compound I-93]: less than 50 nM.
`Cn1cc(-c2ccccc2Oc2cccc(OCCN3CCN(c4ncc(C(=O)N[C@H]5C(C)(C)[C@H](Oc6ccc(C#N)c(Cl)c6)C5(C)C)cn4)CC3)c2)c2cc[nH]c2c1=O` [Compound I-98]: the inhibition constant (Ki) is less than 50 nM.
